According to patent US20250092360A1, “METHODS AND COMPOSITIONS FOR GENERATING SOMATOSTATIN+ INTERNEURONS FROM HUMAN FOREBRAIN NEURAL PROGENITOR CELLS” (Trailhead Biosystems Inc., priority 2023, published 2025):
“Also recorded” adds a separate entry of the source.

Experiments:
[1] = tested on: human pluripotent stem cells; experiment: HD-DoE stage 1, first 12-factor experiment: gene expression (qPCR) after 3-day treatment; format: cell-based
Excerpt: This example utilizes a method of High-Dimensional Design of Experiments (HD-DoE), as previously described in Bukys et al. (2020) […] 23:101346. The method employs computerized design geometries to simultaneously test multiple process inputs and offers mathematical modeling of a deep effector/response space. The method allows for finding combinatorial signaling inputs that control a complex process, such as during cell differentiation. It allows testing of multiple plausible critical process parameters, as such parameters impact output responses, such as gene expression. Because gene expression provides hallmark features of the phenotype of, for example, a human cell, the method can be applied to identify, and understand, which signaling pathways control cell fate. In the current example, the HD-DOE method was applied with the intent to find conditions for induction of […] neural progenitor-expressed genes, directly from the pluripotent stem cell state. To develop the recipe for each stage, the impact of agonists and antagonists of multiple signaling pathways (herein called effectors) on the expression of two sets of 53 pre-selected genes, after a 3-day treatment, has been tested and modeled. These effectors are small molecules or proteins that are commonly used during stepwise differentiation of stem cells to specific fates. Choice of the effectors were based on current literature on neural induction in forebrain region of developing brain and differentiation of stem cells to neural progenitors. To test the effectors, experiments with at least 8 factors were designed that can assess the response of cells to 48 or more different combinations of effectors in a range of concentrations. To analyze the models, we focused on expression of genes involved in development and patterning of the anterior neuroectoderm and forebrain including OTX2 (Hoch et al. (2015) Cell Reports 12:482-494), SIX3 (Lagutin et al. (2003) Genes & Development 17:368-379) and FEZF2 (Zhang et al. (2014) Development 141:4794-[…]). At later stages we focused on dorsoventral patterning of telencephalon and gene expressed in ventral forebrain including NKX2-1 and absence of PAX6 which is a dorsal forebrain marker (Stoykova et al. (2000) J. Neurosci. 20:8042-8050). The impact of each effector on gene expression level is defined by a parameter called factor contribution that is calculated for each effector during the modeling. To identify the recipe for stage 1 of differentiation, 96 different combinations of effectors generated using Design-of-Experiments compression through D-optimality were robotically prepared. The effector combinations were prepared in a basal media and were subsequently added to the cells, which were then allowed to differentiate. Three days later RNA extraction was performed, and gene expression was obtained using quantitative PCR analysis. The data were normalized and modeled using partial least squares regression analysis to the effector design, resulting in the generation of gene-specific models, which after model tuning for maximal Q2 predictive power, provided explanation of the effectors ability to control the expression of individual genes, combinatorically, and individually. Solutions within the tested space could then be explored to address desirability. Optimizing for maximal expression of SIX3 at 3300 and FEZF2 1355 expression values led to robust solutions. This model was derived from testing 12 effectors including AGN193109, LDN193189, CHIR99021, XAV939, IGF2, Purmorphamine, 4-oxo-RA, TTNPB, SR11237, FGF8, PD0325901 and […]. […] The model was also optimized for maximum expression of FEZF2 separately at 3576 expression value to find any additional factors that can boost expression of forebrain genes. […] To find the set of factors that have the potential to optimize all 3 genes in this experiment, a new assessment was done through dynamic profile analysis with focus on maximal expression of OTX2, FEZF2 and SIX3.

[2] = tested on: human pluripotent stem cells; experiment: HD-DoE stage 1, additional experiment: FEZF2 expression; format: cell-based
Protocol: To identify the recipe for stage 1 of differentiation, 96 different combinations of effectors generated using Design-of-Experiments compression through D-optimality were robotically prepared. The effector combinations were prepared in a basal media and were subsequently added to the cells, which were then allowed to differentiate. Three days later RNA extraction was performed, and gene expression was obtained using quantitative PCR analysis. The data were normalized and modeled using partial least squares regression analysis to the effector design, resulting in the generation of gene-specific models, which after model tuning for maximal Q2 predictive power, provided explanation of the effectors ability to control the expression of individual genes, combinatorically, and individually. Solutions within the tested space could then be explored to address desirability. To further enhance the conditions for forebrain differentiation from pluripotency, an additional HD-DoE experiment was performed. Additional gene regulatory models were obtained that were used for preparation of the differentiation protocol. The factors in this experiment included LDN193189, PD173074, BLU9931, Purmorphamine, SC79, MK2206, ZM336372, PD0325901, CHIR99021, XAV939, UCLA-GP130, Tofacitinib and GO6983. […] Dynamic profile analysis was also used to assess the interaction between the effectors.

[3] = tested on: forebrain-committed neural stem cells; experiment: HD-DoE stage 2, 12-factor experiment: NKX2-1 expression; format: cell-based, human; conditions: model / dynamic profile, in words
Protocol: To further guide the differentiation of forebrain-committed neural stem cells to ventral forebrain neural stem cells at stage 2, a HD-DoE experiment was performed for 3 days after termination of stage 1 treatment. […] This 12-factor experiment included LDN193189, BMP7, PD0325901, MK2206, A8301, XAV939, CHIR99021, Purmorphamine, SANT-1, AGN193109, TTNPB and GSI-XX. […]

[4] = tested on: human pluripotent stem cells; experiment: Factor criticality analysis, stage 1 recipe (dynamic profile analysis); format: cell-based; conditions: other five stage 1 factors present, FIG. 11
Excerpt: To assess the impact of the elimination of each validated factor, dynamic profile analysis was used and compared the expression level of genes of interest in absence of each finalized factor while others are present. […] When Purmorphamine was removed, levels of FEZF2 and SIX3 were decreased to 1000 and below 3000, while levels of OTX2 increased to 6500.

[5] = tested on: forebrain-committed neural stem cells; experiment: Factor criticality analysis, stage 2 recipe; format: cell-based, human; conditions: other three stage 2 factors present
Protocol: (§1) To assess the impact of the elimination of each validated factor, dynamic profile analysis was used and compared the expression level of genes of interest in absence of each finalized factor while others are present.
In the stage 2 recipe, each of the four finalized factors were removed while the other three factors remained present and expression levels of NKX2-1, PAX6 and NKX2-2 were assessed compared to presence of all four factors. Absence of PD0325901 reduced the levels of NKX2-1 and NKX2-2 while increasing PAX6 from 5000 to 3200, 100 to 0 and 0 to 5000, respectively. […] Removing XAV939 reduced the levels of NKX2-1 from 5000 to 3000, while increasing both PAX6 and NKX2-2 to 10000 and 200, respectively. Another observation was the interaction between XAV939 and Purmorphamine. In the absence of XAV939, the impact of Purmorphamine on NKX2-1 became negative and, as it is shown in interaction plot of FIG. 14, the level of NKX2-1 is higher when both factors are present.

[6] = tested on: stage 2 neural stem cells; experiment: HD-DoE stage 3 experiment: ASCL1, LHX6, DLX1 expression; format: cell-based, human
Protocol: To further guide the cells to medial ganglionic eminence progenitor fate, an additional HD-DoE experiment was performed for 3 days on cells that were treated with stage 1 and stage 2 media for total of 6 days prior to start of the experiment. This experiment included 13 effectors, LDN193189, A8301, GNF5837, AZD3147, GSI-XX, Takinib, PD0325901, PD173074, BLU9931, IGF-1, MHY1485, Purmorphamine and Prostratin. In this model, we focused on maximum expression of genes expressed in neuronal progenitor cells in medial ganglionic eminence (MGE) region including ASCL1, LHX6 and DLX1 (Silberberg et al. (2016) Neuron 92:59-74). When the model was optimized for maximum expression of ASCL1 at 1700, A8301, GSI-XX, Purmorphamine and Takinib, which is an inhibitor of TAK1 pathway, had the highest factor contributions, 18.1, 14.1, 12.7 and 10.1 respectively. […] MHY 1485 also had positive contribution however the factor was below 2 (FIG. 9).
Therefore, six effectors including A8301, GSI-XX, Takinib, GNF5837, IGF-1 and Purmorphamine were finalized as ingredients of stage 3 differentiation media. A representative recipe for Stage 3 differentiation is summarized below in Table 3.

[7] = tested on: medial ganglionic eminence (MGE)-derived neural progenitors; experiment: HD-DoE stage 4, 12-factor experiment: SOX6 expression; format: cell-based, human
Excerpt: These effectors are small chemical compounds or proteins. They are commonly used during the differentiation of stem cells to specific cell linage. The choice of the effectors was based on the current literature on forebrain neural induction and differentiation of neural progenitor cells to mature neurons.
To evaluate the effectors on SST differentiation, experiments with 8 or 12 factors were designed to assess the responses of cells to 48 or more combinations of effectors in a range of concentrations. To analyze the models, we focused on expression of genes involved in development and patterning of the forebrain interneurons maturation including LHX6 (Liodis et al. (2007) J. Neurosci. 27:3078-3089; Yuan et al. (2018) Elife 7: e37382), SOX6 (Azim et al. (2009) Nature Neurosci. 12:1238-1247; Batista-Brito et al. (2009) Neuron 63:466-481), DLX5 (de Lombares et al. (2019) Aging (Albany NY) 11:6638; Wang et al. (2010) J. Neurosci. 30:5334-5345) and ASCL1 (Barretto et al. (2020) J. Neurosci. Meth. 334:108548; Shi et al. (2016) J. Biol. Chem. 291:13560-13570). At later stages we focused on interneuron maturation genes including somatostatin and absence of Parvalbumin (Horn and Nicoll (2018) Proc. Natl. Acad. Sci. 115:589-594). The impacts of each effector on gene expression level are defined by a parameter called factor contribution that is calculated for each effector during the modeling.
To identify the recipe for differentiation at stage 4, at least 48 different combinations of effectors were robotically prepared by the Design-of-Experiments compression through D-optimality. The effector combinations were prepared in a basal media and were subsequently added to the cells, which were then allowed to differentiate. Three days later, RNA extraction was performed, and gene expression levels were examined using quantitative PCR analysis. The data was normalized and modeled using partial least squares regression analysis to the effector design, resulting in the generation of gene-specific models, which after model tuning for maximal predictive power, provided explanation of the effectors ability to control the expression of individual genes, combinatorically, and individually. Solutions within the tested space could then be explored to address desirability.
IGF-1 activates the IGF-1 pathway, promotes neuron axonal growth, and establishes the synapse of interneurons. GDNF is the […] and can activate the GDNF pathway. MK2206 is an AKT inhibitor and can inhibit cell proliferation and promote neuronal maturation. PD173074 and BLU-554 are FGFR inhibitors. The FGF pathway is required for the maintenance of neural progenitor cells. Inhibition of the FGFR pathway promotes neural maturation. GSI-XX is a notch pathway inhibitor. Notch pathway inhibits neural progenitor cell differentiation. Inhibition of the Notch pathway promotes neural differentiation.
To find the set of factors that have the potential to optimize SOX6 in this experiment, a new assessment was done through dynamic profile analysis with focus on maximal expression of SOX6.

[8] = tested on: stage 2 neural stem cells; experiment: Factor criticality analysis, stage 3 recipe; format: cell-based, human; conditions: other five stage 3 factors present
Protocol: as §1
In the stage 3 recipe, each of the six finalized factors were removed while the other five factors remained present and the expression levels of ASCL1, DLX1 and LHX6 were assessed compared to the presence of all six factors. […] As expected, in the absence of IGF-1, the value of DLX1 increases to 410, however, ASCL1 and LHX6 decreased to 1390 and 220, respectively.

[9] = tested on: medial ganglionic eminence (MGE)-derived neural progenitors; experiment: Factor criticality analysis, stage 4 recipe; format: cell-based, human; conditions: FIG. 27, in words
Protocol: To assess the impact of elimination of each validated factor, dynamic profile analysis was again used to compare the expression levels of genes of interest in the absence of each finalized factor while the others were present in the media.
In the stage 4 recipe, each of the five finalized factors was removed while the other four factors remained present in the media and the expression level of forebrain genes was assessed compared to the presence of all 6 factors. SOX6 expression was reported to determine the cortical interneuron-precursors cell fate (see e.g., Azim et al. (2009) Nature Neurosci. 12:1238-1247; Batista-Brito et al. (2009) Neuron 63:466-481). Therefore, optimization of SOX6 expression was focused on at this stage.

Q: Which results are given for `Oc1nc(-c2ccc(C(F)(F)F)cc2)nc2c1CSCC2` [XAV939]?
A: impact on expression of OTX2 ([1]; dynamic profile / model, in words): positive impact; factor contribution, expression of SIX3 ([1]; positive impact, model optimized for maximal SIX3, 3-day treatment, qPCR): 5; impact on expression of FEZF2 ([2]; dynamic profile, in words): positive impact; factor contribution, expression of FEZF2 ([2]; positive impact, additional stage 1 experiment optimized for FEZF2): 12; impact on expression of NKX2-1 [3]: increase; also recorded: Positive impact; expression level of FEZF2 when the factor is removed ([4]; 2000 with all six factors): 1700; expression level of SIX3 when the factor is removed ([4]; 3000 with all six factors): 1000; expression level of OTX2 when the factor is removed ([4]; 5500 with all six factors): 5000; expression level of PAX6 when the factor is removed ([5]; 0 with all four factors): 10000; expression level of NKX2-2 when the factor is removed ([5]; 100 with all four factors): 200; expression level of NKX2-1 when the factor is removed ([5]; 5000 with all four factors): 3000

Q: Which results are given for “IGF-1: Growth factor; activates the IGF-1 pathway”?
A: impact on expression of ASCL1 ([6]; dynamic profile, in words): positive effect; impact on expression of DLX1 ([6]; dynamic profile, in words): negative impact; impact on expression of LHX6 ([6]; dynamic profile, in words): positive effect; factor contribution, expression of ASCL1 ([6]; positive, model optimized for maximum ASCL1 at 1700): 7; impact on expression of SOX6 ([7]; dynamic profile, in words): positive impact; factor contribution, expression of SOX6 ([7]; positive impact, model optimized for maximal SOX6 at 1442): 2.9; expression level of DLX1 when the factor is removed ([8]; 220 with all six factors): 410; expression level of LHX6 when the factor is removed ([8]; 240 with all six factors): 220; expression level of ASCL1 when the factor is removed ([8]; 1650 with all six factors): 1390; effect on SOX6 expression [9]: increase
